We go through 21 compounds from patent US12024506B2, “Compounds” (Oxford University Innovation Limited, priority 2018, dated 2024).

For test [1], the target named is T1, GST-human KRas166 (G12V) GPPNHP (Homo sapiens, UniProt P01116, G12V).
T1 construct: made in house; host or cells: E. coli C41(DE3)
The test is described as follows: KRas small-molecule screening by SPR (Biacore T200). As to conditions: compound 100 uM, 5% DMSO buffer; immobilised GST-KRas166 (G12V) GPPNHP. Type of test: binding. In outline:
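GST-KRas166 G12V loaded with GPPNHP, captured on anti-GST CM5 chip at 10,000–15,000 RU, GST reference channel. Compounds run at 100 uM in buffer with 100 mM NaCl, 5 mM MgCl2, 5% DMSO, with DMSO solvent correction; Rmax for 1:1 binding taken as 63 RU.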
(In general: In SPR one partner is held on a chip, and binding of the other changes the refractive index at the surface.)

The test system of test [2] is H358 cells (ATCC CRL-5807). The test is described as follows: Cell viability assay 1 (CellTiter-Glo), H358 cells. As to conditions: Homo sapiens, NCI-H358, 48 h, first value of the cell, read-out: Cell Viability H358 (concentration that decreases cell viability by 50%). Type of test: cell-based. As to the method:
(§1) Cells (A549 ATCC CCL-185) are cultured in Dulbecco's Modified Eagle's Medium plus 10% foetal calf serum and 2 mM L-glutamine at 37° C., 5% CO2. Cells are plated onto white clear bottom 96-well plates (5000 cells/well in 200 μl media) and left to adhere overnight at 37° C., 5% CO2. Next day, test compound (1 μl at 200× concentration in 100% DMSO) is added to give final test compound concentration 1× in 0.5% DMSO. After 48 h of incubation at 37° C., 5% CO2, 20 μl CellTiter-Glo reagent (Promega G7572) is added into each well. Plates are incubated at room temperature with shaking for 30 min and then luminescence is read using a PheraStar plate reader. The concentration of compounds that decrease cell viability by 50% is calculated from dose response curves generated using Dotmatics data analysis software.
In the H358 cell assay, cells (ATCC CRL-5807) are cultured in RPMI-1640 medium plus 10% foetal calf serum and 2 mM L-glutamine at 37° C., 5% CO2.
A general note: Cellular ATP, detected with luciferase, serves as a proxy for viable cell number.

Test [3] relates to DLD1 cells (ATCC CCL-221). The test can be described thus: Cell viability assay 1 (CellTiter-Glo), DLD1 cells. Type of test: cell-based. As to conditions: Homo sapiens, DLD-1 cells, 48 h, second value of the cell, read-out: Cell Viability DLD-1 (concentration that decreases cell viability by 50%). As to the method: as §1
In the DLD1 cell assay, cells (ATCC CCL-221) are cultured in RPMI-1640 medium plus 10% foetal calf serum and 2 mM L-glutamine at 37° C., 5% CO2.

Turning to `COc1nc(-c2cccc3c2OCCO3)ccc1Nc1cccc(CNCC2CCN(C(C)=O)CC2)c1` [Example 191, 1-[4-({3-[6-(2,3-Dihydro-benzo[1,4]dioxin-5-yl)-2-methoxy-pyridin-3-ylamino]-benzylamino}-methyl)-piperidin-1-yl]-ethanone], in test [1], the “SPR Response Units” value came out at 327 Response Units. The IC50 in test [2] worked out at 91.8 µM; in test [3] it was 7.9 µM.

Take `COc1nc(-c2cccc3c2OCCO3)ccc1Nc1cccc(CN2CCNCC2)c1` [Example 207, [6-(2,3-Dihydro-benzo[1,4]dioxin-5-yl)-2-methoxy-pyridin-3-yl]-(3-piperazin-1-ylmethyl-phenyl)-amine]: the “SPR Response Units” value in test [1] was determined as 1189 Response Units. Also, the IC50 in test [2] was 5.8 µM; in test [3], 22 µM.

In the case of `COc1nc(-c2cccc3c2OCCO3)ccc1Nc1ccc(Cn2ccnc2)cc1` [Example 58, [6-(2,3-Dihydro-benzo[1,4]dioxin-5-yl)-2-methoxy-pyridin-3-yl]-(4-imidazol-1-ylmethyl-phenyl)-amine], in test [1], the “SPR Response Units” value stood at 269 Response Units. The results for the IC50 in test [2] and in test [3] were 19 µM and 16.2 µM, respectively.

As for `COc1nc(-c2cccc3c2OCCO3)ccc1Nc1ccc(CNCC2CCN(Cc3ccccc3)CC2)cc1` [Example 187, (4-{[(1-Benzyl-piperidin-4-ylmethyl)-amino]-methyl}-phenyl)-[6-(2,3-dihydro-benzo[1,4]dioxin-5-yl)-2-methoxy-pyridin-3-yl]-amine], in test [1], the “SPR Response Units” value came out at 916 Response Units. For the same compound, the results for the IC50 in test [2] and in test [3] were 25.9 µM and 2.2 µM, respectively.

Turning to `COc1nc(-c2cccc3c2OCCO3)ccc1Nc1ccc(CNCC2CCC(=O)NC2)cc1` (stereo not drawn) [Example 172, 5-({4-[6-(2,3-Dihydro-benzo[1,4]dioxin-5-yl)-2-methoxy-pyridin-3-ylamino]-benzylamino}-methyl)-piperidin-2-one], in test [1], the “SPR Response Units” value came out at 174 Response Units. The figures for the IC50 in test [2] and in test [3] were 23.3 µM and 4.7 µM, respectively.

With `c1cc2c(c(-c3cnc(Nc4ccc(CNCC5COCCN5)cc4)cn3)c1)OCCO2` (stereo not drawn) [Example 155, [5-(2,3-Dihydro-benzo[1,4]dioxin-5-yl)-pyrazin-2-yl]-(4-{[(morpholin-3-ylmethyl)-amino]-methyl}-phenyl)-amine], the “SPR Response Units” value in test [1] is 71 Response Units. Moreover, the values for the IC50 in test [2] and in test [3] were 12.7 µM and 0.56 µM, respectively.

`COc1nc(-c2cccc3c2OCCO3)ccc1Nc1cccc(CN2CCCC2)c1` [Example 60, [6-(2,3-Dihydro-benzo[1,4]dioxin-5-yl)-2-methoxy-pyridin-3-yl]-(3-pyrrolidin-1-ylmethyl-phenyl)-amine]: in test [1], the “SPR Response Units” value is recorded as 108 Response Units. Further, the IC50 in test [2] is 11.4 µM; in test [3], 7.5 µM.

Turning to `COc1nc(-c2cccc3c2OCCO3)ccc1Nc1cccc(CNC(=O)c2cccnc2)c1` [Example 79, N-{3-[6-(2,3-Dihydro-benzo[1,4]dioxin-5-yl)-2-methoxy-pyridin-3-ylamino]-benzyl}-nicotinamide], in test [1], the “SPR Response Units” value came out at 47 Response Units. The IC50 was 18 µM in test [2] and 16.5 µM in test [3].

Consider `COc1nc(-c2cccc3c2OCCO3)ccc1Nc1cccc(CNCC2CCN(Cc3ccccc3)CC2)c1` [Example 190, (3-{[(1-Benzyl-piperidin-4-ylmethyl)-amino]-methyl}-phenyl)-[6-(2,3-dihydro-benzo[1,4]dioxin-5-yl)-2-methoxy-pyridin-3-yl]-amine], for which the “SPR Response Units” value in test [1] worked out at 665 Response Units. Besides, the IC50 was found to be 8.6 µM in test [2] and 1.6 µM in test [3].

For the compound `CN(C)Cc1cccc(Nc2ccc(-c3cccc4c3OCCO4)[nH]c2=O)c1` [Example 153, 6-(2,3-Dihydro-benzo[1,4]dioxin-5-yl)-3-(3-dimethylaminomethyl-phenylamino)-1H-pyridin-2-one], in test [1], the “SPR Response Units” value came out at 90 Response Units. Also, the results for the IC50 in test [2] and in test [3] were 0.6 µM and 0.14 µM, respectively.

Consider `COc1nc(-c2cccc3c2OCCO3)ccc1Nc1ccc(C(=O)NCC2CCNC(=O)C2)cc1` (stereo not drawn) [Example 196, 4-[6-(2,3-Dihydro-benzo[1,4]dioxin-5-yl)-2-methoxy-pyridin-3-ylamino]-N-(2-oxo-piperidin-4-ylmethyl)-benzamide], for which the “SPR Response Units” value in test [1] is recorded as 194 Response Units. Moreover, the IC50 in test [2] was 30.6 µM; in test [3], 7.2 µM.

Consider `COc1cccc(-c2cccc3c2OC(CNC(=O)c2coc(CN4CCOCC4)c2)CO3)n1` (stereo not drawn) [Example 46, 5-Morpholin-4-ylmethyl-furan-3-carboxylic acid [8-(6-methoxy-pyridin-2-yl)-2,3-dihydro-benzo[1,4]dioxin-2-ylmethyl]-amide], for which the “SPR Response Units” value in test [1] is recorded as 148 Response Units. Moreover, the IC50 in test [2] and in test [3] was above 100 µM in each case.

For the compound `COc1cccc(-c2cccc3c2OC(CNCc2ccc(OCCN(C)C)cc2)CO3)n1` (stereo not drawn) [Example 26, {2-[4-({[8-(6-Methoxy-pyridin-2-yl)-2,3-dihydro-benzo[1,4]dioxin-2-ylmethyl]-amino}-methyl)-phenoxy]-ethyl}-dimethyl-amine], in test [1], the “SPR Response Units” value was found to be 53 Response Units. Further, the IC50 stood at 95 µM in test [2] and 4 µM in test [3].

For `COc1nc(-c2cccc3c2OC(CNC(=O)C2CCOCC2)CO3)ccc1Nc1cccc(CN(C)C)c1` (stereo not drawn) [Example 84, Tetrahydro-pyran-4-carboxylic acid {8-[5(3-dimethylamino-methyl-phenylamino)-6-methoxy-pyridin-2-yl]-2,3-dihydro-benzo[1,4]dioxin-2-ylmethyl}-amide], the “SPR Response Units” value in test [1] is on record as 59 Response Units. Further, the results for the IC50 in test [2] and in test [3] were 33 µM and 20 µM, respectively.

With `COc1cccc(-c2cccc3c2OC(CNC(=O)c2ccc(OCCN(C)C)cc2F)CO3)n1` (stereo not drawn) [Example 38, 4-(2-Dimethylamino-ethoxy)-2-fluoro-N-[8-(6-methoxy-pyridin-2-yl)-2,3-dihydro-benzo[1,4]dioxin-2-ylmethyl]-benzamide], the “SPR Response Units” value in test [1] stood at 335 Response Units. The figures for the IC50 in test [2] and in test [3] were 58 µM and 3.6 µM, respectively.

As for `COc1nc(-c2cccc3c2OCCO3)ccc1Nc1cccc(CN2CCCC(C(N)=O)C2)c1` (stereo not drawn) [Example 200, 1-{3-[6-(2,3-Dihydro-benzo[1,4]dioxin-5-yl)-2-methoxy-pyridin-3-ylamino]-benzyl}-piperidine-3-carboxylic acid amide], in test [1], the “SPR Response Units” value is listed as 424 Response Units. For the same compound, the results for the IC50 in test [2] and in test [3] were 1.5 µM and 8.6 µM, respectively.

As to `COc1nc(-c2cccc3c2OCCO3)ccc1Nc1cccc(C(=O)NCC2CCNCC2)c1` [Example 180, 3-[6-(2,3-Dihydro-benzo[1,4]dioxin-5-yl)-2-methoxy-pyridin-3-ylamino]-N-piperidin-4-ylmethyl-benzamide], in test [1], the “SPR Response Units” value is given as 197 Response Units. For the same compound, the IC50 in test [2] was 8.6 µM; in test [3] it was 0.65 µM.

On to `COc1nc(-c2cccc3c2OCCO3)ccc1Nc1cccc([C@H]2CCCN2)c1` [Example 74, [6-(2,3-Dihydro-benzo[1,4]dioxin-5-yl)-2-methoxy-pyridin-3-yl]-((R)-3-pyrrolidin-2-yl-phenyl)-amine], for which the “SPR Response Units” value in test [1] is 110 Response Units. For the same compound, the IC50 in test [2] was found to be 3.11 µM; in test [3], 6 µM.

For the compound `COc1nc(-c2cccc3c2OCCO3)ccc1Nc1ccc(CNC[C@H]2COCCN2)cc1` [Example 129, [6-(2,3-Dihydro-benzo[1,4]dioxin-5-yl)-2-methoxy-pyridin-3-yl]-(4-{[((S)-1-morpholin-3-ylmethyl)-amino]-methyl}-phenyl)-amine], in test [1], the “SPR Response Units” value is reported as 92 Response Units. The IC50 stood at 6.5 µM in test [2] and 10.2 µM in test [3].

In the case of `CN1CCN(Cc2ccc(C(=O)NCC3COc4cccc(-c5ccc(OCc6ccccc6)cn5)c4O3)o2)CC1` (stereo not drawn) [Example 109, 5-(4-Methyl-piperazin-1-ylmethyl)-furan-2-carboxylic acid [8-(5-benzyloxy-pyridin-2-yl)-2,3-dihydro-benzo[1,4]dioxin-2-ylmethyl]-amide], in test [1], the “SPR Response Units” value turned out to be 114 Response Units. Further, the figures for the IC50 in test [2] and in test [3] were above 100 µM and 9 µM, respectively.

Regarding `COc1nc(-c2cccc3c2OCCO3)ccc1Nc1ccc(C(=O)NCC2CCNCC2)cc1` [Example 179, 4-[6-(2,3-Dihydro-benzo[1,4]dioxin-5-yl)-2-methoxy-pyridin-3-ylamino]-N-piperidin-4-ylmethyl-benzamide], the “SPR Response Units” value in test [1] stood at 162 Response Units. For the same compound, the IC50 in test [2] came out at 7.5 µM; in test [3], 0.39 µM.
